SMILES strings stand for the structures. Where two headings read alike, the source gives them in different places.

The assay addresses T1, human PAH with the R408W mutation (Homo sapiens, UniProt P00439, R408W).
T1 construct: expressed in transfected cells
T1 sequence (P00439 1-452 R408W): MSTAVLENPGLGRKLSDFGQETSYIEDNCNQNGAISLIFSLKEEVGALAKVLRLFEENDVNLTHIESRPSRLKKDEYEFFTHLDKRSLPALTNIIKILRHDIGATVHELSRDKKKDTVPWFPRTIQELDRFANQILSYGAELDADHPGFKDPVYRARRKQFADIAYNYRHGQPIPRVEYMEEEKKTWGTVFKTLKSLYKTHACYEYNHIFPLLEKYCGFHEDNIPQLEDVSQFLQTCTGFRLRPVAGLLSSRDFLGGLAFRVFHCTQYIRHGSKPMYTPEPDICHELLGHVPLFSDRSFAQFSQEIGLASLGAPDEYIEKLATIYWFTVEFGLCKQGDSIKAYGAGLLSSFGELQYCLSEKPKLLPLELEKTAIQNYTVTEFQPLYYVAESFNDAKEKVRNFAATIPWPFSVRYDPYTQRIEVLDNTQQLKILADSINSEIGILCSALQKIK
Put plainly: Cell Based Phenylalanine Flux Assay. To be noted: 13C-Tyrosine by LC-MS, average where tested multiple times. More on the design: scale not given here.

The mark [1] stands for this setting: A375 cells expressing human R408W PAH, 24 hrs compound incubation, read-out: AC50.
[2] abbreviates: A375 R408W cells, 24 hrs with compound, then 20 μM sepiapterin and 800 μM 13C9,15N-Phenylalanine for 4 hours, read-out: AC50.

Take `CC(C)(F)c1ncc(C(=O)N2CCc3[nH]cnc3[C@@H]2c2cc3ccccc3cn2)o1` [Example 338, (S)-(2-(2-fluoropropan-2-yl)oxazol-5-yl)(4-(isoquinolin-3-yl)-6,7-dihydro-1H-imidazo[4,5-c]pyridin-5(4H)-yl)methanone]: the AC50 under setting [1] is above 5000 nM.
Take `O=C(CC1CC(F)C1)N1CCc2[nH]cnc2[C@@H]1c1cn2ccccc2n1` (stereo partly drawn) [Example 253, (S)-2-(3-fluorocyclobutyl)-1-(4-(imidazo[1,2-a]pyridin-2-yl)-6,7-dihydro-1H-imidazo[4,5-c]pyridin-5(4H)-yl)ethanone]: the concentration at half-maximal activity (AC50) under setting [1] was 1000 to 5000 nM.
With `O=C(CC1(O)CCC1)N1CCc2[nH]cnc2C1c1ccc2ccccc2n1` (stereo in doubt) [Example 60, (S)-2-(1-hydroxycyclobutyl)-1-(4-(quinolin-2-yl)-6,7-dihydro-1H-imidazo[4,5-c]pyridin-5(4H)-yl)ethanone], under setting [1], the AC50 is 1000 to 5000 nM.
On to `C[C@@H](O)c1nnc(C(=O)N2CCc3[nH]cnc3[C@H]2c2cc3ccccc3nn2)o1` (single isomer, unassigned), for which the AC50 under setting [2] was above 5000 nM.
Regarding `CC(C)(F)c1ncc(C(=O)N2CCc3[nH]cnc3[C@H]2c2cc3ccccc3cn2)s1` [Example 332, (R)-(2-(2-fluoropropan-2-yl)thiazol-5-yl)(4-(isoquinolin-3-yl)-6,7-dihydro-1H-imidazo[4,5-c]pyridin-5(4H)-yl)methanone], the AC50 under setting [1] is below 500 nM.
In the case of `C[C@@H]1CN(C(=O)c2nnc(-c3ccc(F)cn3)o2)[C@H](c2cc3ccccc3cn2)c2nc[nH]c21` [Example 494, (5-(5-fluoropyridin-2-yl)-1,3,4-oxadiazol-2-yl)((4R,7R)-4-(isoquinolin-3-yl)-7-methyl-6,7-dihydro-1H-imidazo[4,5-c]pyridin-5(4H)-yl)methanone], the AC50 under setting [1] lay in the range of 1000 to 5000 nM.
As for `O=C(c1oc(-c2ccncc2)nc1C(F)F)N1CCc2[nH]cnc2C1c1ncc2ccccc2n1` (centres unmarked), the AC50 entry (A375 R408W cells, 24 hrs with compound, then 20 μM sepiapterin and 800 μM 13C9,15N-Phenylalanine for 4 hours) is on record as “E, E”.
With `O=C(c1oc(-c2ccccn2)nc1C1CC1)N1CCCc2[nH]cnc2C1c1ccc2ccccc2n1` (centres unmarked), under setting [2], the AC50 is 1000 to 5000 nM.
On the same count and under the same terms, the figure for `O=C(c1nc2ccccc2s1)N1CCc2[nH]cnc2C1c1ccc2ccccc2c1` (centres unmarked) is above 5000 nM; for `COCc1ncc(C(=O)N2CCc3[nH]cnc3[C@H]2c2cn3ccccc3n2)s1` (single isomer, unassigned) it is above 5000 nM.
For the molecule `C[C@@H](O)c1nc(C(F)F)c(C(=O)N2CCc3[nH]cnc3C2c2ccc3ccccc3n2)o1` (stereo in doubt) [Example 119, (4-(difluoromethyl)-2-((R)-1-hydroxyethyl)oxazol-5-yl)((S)-4-(quinolin-2-yl)-6,7-dihydro-1H-imidazo[4,5-c]pyridin-5(4H)-yl)methanone], the AC50 under setting [1] fell in the range of 1000 to 5000 nM.
Regarding `O=C(CCc1nccs1)N1CCc2[nH]cnc2[C@@H]1c1ncc2ccccc2n1` [Example 274, (R)-1-(4-(quinazolin-2-yl)-6,7-dihydro-1H-imidazo[4,5-c]pyridin-5(4H)-yl)-3-(thiazol-2-yl)propan-1-one], the AC50 under setting [1] was above 5000 nM.
For the molecule `COCc1ncc(C(=O)N2CCc3[nH]cnc3C2c2ccc3ccccc3n2)s1` (centres unmarked), the concentration at half-maximal activity (AC50) under setting [2] is above 5000 nM.
Take `O=C(c1oc(-c2ccccn2)nc1C(F)F)N1CCc2[nH]cnc2C1c1cc2ccccc2nn1` (centres unmarked): the AC50 under setting [2] was above 5000 nM.
Still for that read-out and setting: the figure for `O=C(c1nnc(N2CCC(F)CC2)o1)N1CCc2[nH]cnc2C1c1ccc2ccccc2n1` (centres unmarked) is 1000 to 5000 nM; for `Cn1nc(C(=O)N2CCc3[nH]cnc3C2c2ccc3ccccc3n2)c2ccccc21` (centres unmarked) it is 1000 to 5000 nM.
Take `O=C(c1oc(-c2ccccn2)nc1C1CC1)N1CCc2[nH]cnc2[C@H]1c1cc2ccccc2cn1` [Example 377, (R)-(4-cyclopropyl-2-(pyridin-2-yl)oxazol-5-yl)(4-(isoquinolin-3-yl)-6,7-dihydro-1H-imidazo[4,5-c]pyridin-5(4H)-yl)methanone]: under setting [1], the AC50 was below 500 nM.
For `O=C(C1CC1(F)F)N1CCc2[nH]cnc2C1c1ccc2ccccc2n1` (centres unmarked), the AC50 under setting [2] is 1000 to 5000 nM.
For the molecule `CC(C)(F)c1nnc(C(=O)N2CCc3[nH]cnc3[C@H]2c2ncc3ccccc3n2)o1` [Example 161, (S)-(5-(2-fluoropropan-2-yl)-1,3,4-oxadiazol-2-yl)(4-(quinazolin-2-yl)-6,7-dihydro-1H-imidazo[4,5-c]pyridin-5(4H)-yl)methanone], the half-maximal activity concentration (AC50) under setting [1] is 500 to 1000 nM.
Regarding `CC(C)(F)c1ncc(C(=O)N2CCc3[nH]cnc3[C@@H]2c2cc3ccccc3cn2)s1` [Example 333, (S)-(2-(2-fluoropropan-2-yl)thiazol-5-yl)(4-(isoquinolin-3-yl)-6,7-dihydro-1H-imidazo[4,5-c]pyridin-5(4H)-yl)methanone], the AC50 under setting [1] was in the range of 1000 to 5000 nM.
With `O=C(c1cnc(C2CC2)s1)N1CCc2[nH]cnc2C1c1cn2ccccc2n1` (centres unmarked), the AC50 under setting [2] was above 5000 nM.
Consider `C[C@H]1CN(C(=O)c2nnc(C(C)(C)F)o2)[C@H](c2cc3ccccc3cn2)c2nc[nH]c21` [Example 499, (5-(2-fluoropropan-2-yl)-1,3,4-oxadiazol-2-yl)((4R,7S)-4-(isoquinolin-3-yl)-7-methyl-6,7-dihydro-1H-imidazo[4,5-c]pyridin-5(4H)-yl)methanone], for which, under setting [1], the AC50 lay within 500 to 1000 nM.
As to `C[C@@H]1CN(C(=O)c2cnco2)[C@H](c2cc3ccccc3cn2)c2nc[nH]c21` [Example 505, ((4R,7R)-4-(isoquinolin-3-yl)-7-methyl-6,7-dihydro-1H-imidazo[4,5-c]pyridin-5(4H)-yl)(oxazol-5-yl)methanone], under setting [1], the AC50 was below 500 nM.
With `O=C(c1cnc(C2(F)CCC2)s1)N1CCc2[nH]cnc2[C@H]1c1cn2ccccc2n1` [Example 251, (R)-(2-(1-fluorocyclobutyl)thiazol-5-yl)(4-(imidazo[1,2-a]pyridin-2-yl)-6,7-dihydro-1H-imidazo[4,5-c]pyridin-5(4H)-yl)methanone], under setting [1], the half-maximal activity concentration (AC50) lay in the range of 1000 to 5000 nM.
On the same count and under the same terms, with `CN1CCN(Cc2ccc3c(C(=O)N4CCc5[nH]cnc5[C@H]4c4cc5ccccc5cn4)cnn3c2)CC1` [Example 488, (R)-(4-(isoquinolin-3-yl)-6,7-dihydro-1H-imidazo[4,5-c]pyridin-5(4H)-yl)(6-((4-methylpiperazin-1-yl)methyl)pyrazolo[1,5-a]pyridin-3-yl)methanone] the figure was below 500 nM.
For `CN(C)Cc1ccc2c(C(=O)N3CC(C)(C)c4[nH]cnc4C3c3cc4ccccc4cn3)cnn2c1` (centres unmarked), the AC50 under setting [2] was above 5000 nM.
For the molecule `CC(C)(O)c1nc(C2CC2)c(C(=O)N2CCCc3[nH]cnc3C2c2cc3ccccc3cn2)o1` (centres unmarked), the half-maximal activity concentration (AC50) under setting [2] lay within 1000 to 5000 nM.
Same read-out and setting: the figure for `CN(C)c1nnc(C(=O)N2CCc3[nH]cnc3C2c2ncc3ccccc3n2)o1` (centres unmarked) [listing 1 of 2 here] is above 5000 nM.
On to `Cn1ccc(-c2nnc(C(=O)N3CCc4[nH]cnc4[C@@H]3c3ncc4ccccc4n3)o2)n1` [Example 166, (R)-(5-(1-methyl-1H-pyrazol-3-yl)-1,3,4-oxadiazol-2-yl)(4-(quinazolin-2-yl)-6,7-dihydro-1H-imidazo[4,5-c]pyridin-5(4H)-yl)methanone], for which, under setting [1], the AC50 was in the range of 1000 to 5000 nM.
The same measure, in the same setting: the figure for `Cc1nc(C2(O)CCC2)oc1C(=O)N1CCc2[nH]cnc2C1c1ccc2ccccc2n1` (stereo in doubt) [Example 101, (R)-(2-(1-hydroxycyclobutyl)-4-methyloxazol-5-yl)(4-(quinolin-2-yl)-6,7-dihydro-1H-imidazo[4,5-c]pyridin-5(4H)-yl)methanone] is 500 to 1000 nM; for `Cc1ccc(-c2nnc(C(=O)N3CCc4[nH]cnc4[C@@H]3c3ncc4ccccc4n3)o2)nc1` [Example 172, (R)-(5-(5-methylpyridin-2-yl)-1,3,4-oxadiazol-2-yl)(4-(quinazolin-2-yl)-6,7-dihydro-1H-imidazo[4,5-c]pyridin-5(4H)-yl)methanone] it is 1000 to 5000 nM.
As for `CN(C)c1nnc(C(=O)N2CCc3[nH]cnc3C2c2ncc3ccccc3n2)o1` (centres unmarked) [listing 2 of 2 here], the AC50 under setting [2] lay in the range of 1000 to 5000 nM.
On to `O=C(c1nnc(-c2ccc(C(F)(F)F)cn2)o1)N1CCc2[nH]cnc2[C@H]1c1cc2ccccc2cn1` [Example 442, (R)-(4-(isoquinolin-3-yl)-6,7-dihydro-1H-imidazo[4,5-c]pyridin-5(4H)-yl)(5-(5-(trifluoromethyl)pyridin-2-yl)-1,3,4-oxadiazol-2-yl)methanone], for which, under setting [1], the AC50 was below 500 nM.
Turning to `O=C(c1nnc(-c2cn[nH]c2)o1)N1CCc2[nH]cnc2C1c1ccc2ccccc2n1` (centres unmarked), the AC50 under setting [2] is above 5000 nM.
On to `O=C(c1nnc(C2CC(F)(F)C2)o1)N1CCc2[nH]cnc2C1c1ccc2ccccc2n1` (centres unmarked), for which the AC50 under setting [2] lay within 1000 to 5000 nM.
Consider `O=C(c1nnc(-c2ncccc2F)o1)N1CCc2[nH]cnc2C1c1ccc2ccccc2n1` (stereo in doubt) [Example 90, (S)-(5-(3-fluoropyridin-2-yl)-1,3,4-oxadiazol-2-yl)(4-(quinolin-2-yl)-6,7-dihydro-1H-imidazo[4,5-c]pyridin-5(4H)-yl)methanone], for which the AC50 under setting [1] lay in the range of 1000 to 5000 nM.
Still for that read-out and setting: with `CC(C)(C)c1ncc(C(=O)N2CCc3[nH]cnc3[C@H]2c2cc3ccccc3cn2)s1` [Example 316, (R)-(2-(tert-butyl)thiazol-5-yl)(4-(isoquinolin-3-yl)-6,7-dihydro-1H-imidazo[4,5-c]pyridin-5(4H)-yl)methanone] the figure was below 500 nM.
As to `Cc1nc(NC2CC2)oc1C(=O)N1CCc2[nH]cnc2C1c1ccc2ccccc2n1` (centres unmarked), the AC50 under setting [2] was above 5000 nM.

The values above are taken from US20250262201A1, “COMPOUNDS AND METHODS USEFUL FOR STABILIZING PHENYLALANINE HYDROXYLASE MUTATIONS” (Agios Pharmaceuticals, Inc., priority 2022, published 2025).
